Laboratory results: patent US20160338351A1, “(S)-ABSCISIC ACID DERIVATIVES FOR ENHANCED GRAPE COLORATION” (Valent BioSciences Corporation, priority 2015, published 2016)
Entries after “also recorded” stand apart in the source; their conditions may differ. Where a name gives a salt, the structure may show the parent alone.

Legend:
Format in all cases: in vivo, Vitis vinifera
[1] = test system: Crimson Seedless grape clusters; assay: Field study, Example 1: visual rating of red grape coloration, % of berries with marketable color
Method: (§1) A field study was conducted in California to compare the efficacy of S-ABA to 3′-methyl-(S)-ABA in promoting red grape coloration. S-ABA and 3′-methyl-(S)-ABA were formulated as aqueous solutions of the corresponding potassium salt to the desired concentrations with the final pHs being between 6.5 and 7.2. Individual Crimson Seedless grape clusters were selected and tagged, with 20 tagged clusters per treatment. The treatments were applied as cluster-directed sprays using a trigger sprayer at 15 to 20 mL per cluster to ensured good coverage of the grapes. Application of 15 to 20 milliliters per cluster simulates application of about 109 gallons per acre directed at the approximately 40 clusters per vine in a vineyard with 518 vines per acre. Based on these estimates, Applicant determined the approximate grams per acre. The equation is as follows: 20 ml/cluster×40 cluster/vine=800 ml/vine×518 vine/acre=(414,400 ml/acre)/(1000 ml/liter)=414 liters/acre. An estimation of grams per acre was made by multiplying the mg per cluster with 20,720 clusters/acre (40 clusters/vine×518 vines/acre=20,720 clusters/acre).
(§2) Periodically after the treatments, the grape clusters were evaluated for color development by visual ratings over a six-week period. The coloration was graded on a 1 to 8 grading scale, where a rating of 1 has very little or no red color and a rating of 8 has a deep or dark red color. The percentages of berries that reached marketable red coloration for each cluster were averaged and recorded for each treatment. Additionally, representative berries from each treatment group were harvested about four weeks after treatment and analyzed for anthocyanin content.

[2] = test system: Crimson Seedless grape clusters; assay: Field study, Example 1: anthocyanin content of berries harvested about four weeks after treatment; settings: berries harvested about four weeks after treatment
Method: as §1, §2

Crimson Seedless grapes = assay: Trial, Example 2: visual color rating of grape clusters on a 1 to 8 scale; design: key to Color Ratings: 1 = little/no red color, 8 = deep/dark red color; settings: for Color Ratings: applied day 0 and day 11, 1 to 8 grading scale
Method: Another trial was conducted in California on Crimson Seedless grapes to compare the efficacy of S-ABA, 3′-methyl-(S)-ABA and 3′-propargyl-(S)-ABA in promoting coloration. All three compounds were formulated as aqueous solutions of the corresponding potassium salt to the desired concentrations, with the final pHs being between 6.5 and 7.2. Individual Crimson Seedless grape clusters were selected and tagged, with 20 tagged clusters per treatment. The solutions were applied as cluster-directed sprays using a trigger sprayer at 15 to 20 milliliters per cluster which ensured good coverage of the grapes. The treatments were applied on day 0 and day 11 of the trial. Periodically during the trial, the grape clusters were evaluated for color development by visual ratings over a six-week period and the coloration was graded on a 1 to 8 grading scale, where a rating of 1 has very little or no red color and a rating of 8 has a deep or dark red color.

## CC1=CC(=O)CC(C)(C)[C@@]1(O)/C=C/C(C)=C/C(=O)O [S-ABA, K^+ salt, (S)-abscisic acid]
[1]; 200 ppm, 3-4 mg/cluster, 60-80 grams/acre, 7 DAT
  Coloring Ratings, % of the berries with marketable color: 41%
[1]; 200 ppm, 3-4 mg/cluster, 60-80 grams/acre, 14 DAT
  Coloring Ratings, % of the berries with marketable color: 78%
[1]; 200 ppm, 3-4 mg/cluster, 60-80 grams/acre, 27 DAT
  Coloring Ratings, % of the berries with marketable color: 84%
[1]; 200 ppm, 3-4 mg/cluster, 60-80 grams/acre, 33 DAT
  Coloring Ratings, % of the berries with marketable color: 88%
[1]; 200 ppm, 3-4 mg/cluster, 60-80 grams/acre, 43 DAT
  Coloring Ratings, % of the berries with marketable color: 89%
[1]; 400 ppm, 6-8 mg/cluster, 120-160 grams/acre, 7 DAT
  Coloring Ratings, % of the berries with marketable color: 47%
[1]; 400 ppm, 6-8 mg/cluster, 120-160 grams/acre, 14 DAT
  Coloring Ratings, % of the berries with marketable color: 80%
[1]; 400 ppm, 6-8 mg/cluster, 120-160 grams/acre, 27 DAT
  Coloring Ratings, % of the berries with marketable color: 85%
[1]; 400 ppm, 6-8 mg/cluster, 120-160 grams/acre, 33 DAT
  Coloring Ratings, % of the berries with marketable color: 88%
[1]; 400 ppm, 6-8 mg/cluster, 120-160 grams/acre, 43 DAT
  Coloring Ratings, % of the berries with marketable color: 91%
[1]; 400 ppm, 6 to 8 mg per cluster
  time to reach ~90% marketable coloration: five weeks; also recorded: five or six weeks
[2]; 3-4 mg/cluster (200 ppm, 15-20 mL)
  Total Anthocyanin Content: 73 mg/L
[2]; 6-8 mg/cluster (400 ppm, 15-20 mL)
  Total Anthocyanin Content: 83 mg/L
Crimson Seedless grapes; 200 ppm, 3-4 mg/cluster, 60-80 g/acre, 3 DAT
  Color Ratings: 1
Crimson Seedless grapes; 200 ppm, 3-4 mg/cluster, 60-80 g/acre, 10 DAT
  Color Ratings: 2.2
Crimson Seedless grapes; 200 ppm, 3-4 mg/cluster, 60-80 g/acre, 14 DAT
  Color Ratings: 2.6
Crimson Seedless grapes; 200 ppm, 3-4 mg/cluster, 60-80 g/acre, 21 DAT
  Color Ratings: 4.1
Crimson Seedless grapes; 200 ppm, 3-4 mg/cluster, 60-80 g/acre, 31 DAT
  Color Ratings: 5.1
Crimson Seedless grapes; 200 ppm, 3-4 mg/cluster, 60-80 g/acre, 41 DAT (end of six-week evaluation)
  Color Ratings: 5.4
Crimson Seedless grapes; 400 ppm, 6-8 mg/cluster, 120-160 g/acre, 3 DAT
  Color Ratings: 1
Crimson Seedless grapes; 400 ppm, 6-8 mg/cluster, 120-160 g/acre, 10 DAT
  Color Ratings: 2.9
Crimson Seedless grapes; 400 ppm, 6-8 mg/cluster, 120-160 g/acre, 14 DAT
  Color Ratings: 3.5
Crimson Seedless grapes; 400 ppm, 6-8 mg/cluster, 120-160 g/acre, 21 DAT
  Color Ratings: 4.5
Crimson Seedless grapes; 400 ppm, 6-8 mg/cluster, 120-160 g/acre, 31 DAT
  Color Ratings: 5.9
Crimson Seedless grapes; 400 ppm, 6-8 mg/cluster, 120-160 g/acre, 41 DAT (end of six-week evaluation)
  Color Ratings: 6.4
Crimson Seedless grapes; six-week evaluation period
  red color development in comparison with the untreated control: dose-dependent accelerated red color development
